Tests used:
Pim-1(h) = Pim-1(h) (Homo sapiens, UniProt P11309); assay: Kinase selectivity panel (residual activity at 1 μM); assay type: biochemical; conditions: inhibitor at 1 μM; read-out: residual kinase activity in % of maximal activity
purified CaMKIIα = purified CaMKIIα (Rattus norvegicus, UniProt P11275); assay: In vitro kinase reaction: CaMKIIα phosphorylation of GST–GluA1 S831; assay type: biochemical; conditions: 30 °C, 1 mM ATP, Ki from IC50 with Km ATP 33.3 μM, read-out: apparent inhibitor constant (Ki), pS831
Protocol: Data are presented as mean values ± s.e.m. a, Schematic of the AS283 inhibitor mechanism of action: ATP-competitive inhibition blocks enzymatic activity while mimicking the nucleotide binding requirement to allow interaction with GluN2B. b, Representative immunoblot and quantification of in vitro kinase reactions at 30 °C in 1 mM ATP measuring purified CaMKIIα phosphorylation of GST–GluA1 S831 with varying concentrations of AS283 (0.41–10 μM; n = 4 independent concentration curves). For a negative control (Neg.), ATP was omitted. […] ADP:AS283 P = 0.0697; ADP:tatCN21 P < 0.0001. ***P < 0.001. d, Confocal microscopy images of HEK293 cells co-expressing GFP–CaMKII and mCherry-2BC. […] CaMKII synaptic enrichment was measured before and after cLTP (n = 14,9 cells; RM two-way ANOVA with Šídák’s multiple comparisons test). […]
CaMKII-mediated phosphorylation of GluA1 S831 or GluN2B S1303 was measured by in vitro kinase reaction with a purified GST–GluA1 C-terminal tail or GST-GluN2B C-terminal tail. […] GST, phospho-S831, CaMKII, phospho-T286 or phospho-S1303 were detected in the samples by immunoblot analysis.
The inhibition constant Ki was calculated using the Cheng–Prusoff equation for competitive inhibition: Ki = IC50/(1 + [ATP]/Km).

Pim-1(h), sequence (P11309 whole entry): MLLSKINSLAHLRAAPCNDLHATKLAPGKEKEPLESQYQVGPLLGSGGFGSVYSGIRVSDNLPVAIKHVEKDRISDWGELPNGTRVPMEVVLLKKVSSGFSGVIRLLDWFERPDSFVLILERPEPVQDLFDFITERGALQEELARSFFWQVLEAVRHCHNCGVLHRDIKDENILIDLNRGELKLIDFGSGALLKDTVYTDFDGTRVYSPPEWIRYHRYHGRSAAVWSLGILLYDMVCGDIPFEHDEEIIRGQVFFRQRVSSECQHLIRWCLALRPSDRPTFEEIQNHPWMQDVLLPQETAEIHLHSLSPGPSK

For `NCCNc1cccc(-c2ccnc3[nH]c4ccccc4c23)c1` [AS283], the remaining activity at 1 µM (Pim-1(h)) was 50% and the Ki (purified CaMKIIα) was 17 nM.

Source: publication PMC10482691, “LTP induction by structural rather than enzymatic functions of CaMKII” (Nature, 2023)
